Reference: patent publication US20160362408A1 (Bayer Pharma Aktiengesellschaft, priority 2013, published 2016)
Structures can show the parent of a compound that is named as a salt.

biological target: T1, recombinant guanylate cyclase reporter cell line (Rattus norvegicus, UniProt P19686+P20595); experiment: Effect on a recombinant guanylate cyclase reporter cell line; type: cell-based; conditions: MEC = minimum effective concentration; in some cases mean values for individual determinations
T1 construct: expressed in transfected cells
T1 sequence (P19686 1-690): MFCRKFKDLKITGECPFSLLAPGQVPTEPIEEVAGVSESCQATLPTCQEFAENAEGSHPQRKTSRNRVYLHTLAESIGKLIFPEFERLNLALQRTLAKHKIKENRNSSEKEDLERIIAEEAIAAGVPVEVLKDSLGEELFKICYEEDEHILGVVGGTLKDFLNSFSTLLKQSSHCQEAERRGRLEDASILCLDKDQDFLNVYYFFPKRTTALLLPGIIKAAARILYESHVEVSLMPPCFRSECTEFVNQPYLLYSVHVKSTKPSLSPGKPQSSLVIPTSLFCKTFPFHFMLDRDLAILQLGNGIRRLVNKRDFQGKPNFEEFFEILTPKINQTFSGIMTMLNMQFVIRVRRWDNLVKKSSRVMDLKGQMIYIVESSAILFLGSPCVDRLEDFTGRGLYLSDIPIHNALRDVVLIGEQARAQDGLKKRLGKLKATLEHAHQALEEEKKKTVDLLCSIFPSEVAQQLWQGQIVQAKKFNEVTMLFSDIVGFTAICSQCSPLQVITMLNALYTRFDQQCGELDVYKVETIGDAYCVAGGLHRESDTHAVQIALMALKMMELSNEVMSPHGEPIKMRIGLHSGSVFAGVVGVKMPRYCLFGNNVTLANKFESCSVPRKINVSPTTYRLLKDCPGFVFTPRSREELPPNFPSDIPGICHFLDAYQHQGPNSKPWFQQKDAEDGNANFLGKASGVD
T1 sequence (P20595 1-619): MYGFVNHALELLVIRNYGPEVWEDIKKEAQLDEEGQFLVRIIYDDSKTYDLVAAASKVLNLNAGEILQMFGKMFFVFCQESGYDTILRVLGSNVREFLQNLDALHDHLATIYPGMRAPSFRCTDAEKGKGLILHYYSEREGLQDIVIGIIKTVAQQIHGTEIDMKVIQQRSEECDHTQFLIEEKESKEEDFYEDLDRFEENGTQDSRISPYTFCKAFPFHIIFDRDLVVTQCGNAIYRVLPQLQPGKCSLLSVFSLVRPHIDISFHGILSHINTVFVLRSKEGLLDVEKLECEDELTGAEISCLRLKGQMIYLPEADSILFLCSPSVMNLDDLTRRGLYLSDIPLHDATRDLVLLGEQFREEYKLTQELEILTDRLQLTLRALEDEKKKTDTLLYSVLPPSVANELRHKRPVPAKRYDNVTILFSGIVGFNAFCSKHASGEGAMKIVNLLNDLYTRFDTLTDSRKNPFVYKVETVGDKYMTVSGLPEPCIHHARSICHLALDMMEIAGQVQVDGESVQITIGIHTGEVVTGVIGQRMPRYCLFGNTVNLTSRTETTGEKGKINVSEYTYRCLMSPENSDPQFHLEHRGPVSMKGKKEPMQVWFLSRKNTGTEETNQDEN
Description: B-2. Effect on a Recombinant Guanylate Cyclase Reporter Cell Line
The cellular action of the compounds of the invention is determined using a recombinant guanylate cyclase reporter cell line, as described in F. Wunder et al., Anal. Biochem. 339, 104-112 (2005).
Representative MEC values (MEC=minimum effective concentration) for the compounds of the invention are shown in the table below (in some cases as mean values for individual determinations): […]

MEC [µM] | Compound
1.0 | Cc1noc(C)c1NC(=O)c1c(C)nc2c(OCc3c(F)cccc3F)cc(Cl)cn12 [Example 39, 6-Chloro-8-[(2,6-difluorobenzyl)oxy]-N-(3,5-dimethyl-1,2-oxazol-4-yl)-2-methylimidazo[1,2-a]pyridine-3-carboxamide]
0.03 | Cc1n[nH]c(C(F)(F)F)c1NC(=O)c1c(C)nc2c(OCc3c(F)cccc3F)cc(Cl)cn12 [Example 40, 6-chloro-8-[(2,6-difluorobenzyl)oxy]-2-methyl-N-[3-methyl-5-(trifluoromethyl)-1H-pyrazol-4-yl]imidazo[1,2-a]pyridine-3-carboxamide]
0.1 | Cc1n[nH]c(C)c1NC(=O)c1c(C)nc2c(OCc3c(F)cccc3F)cc(Cl)cn12 [Example 41, 6-chloro-8-[(2,6-difluorobenzyl)oxy]-N-(3,5-dimethyl-1H-pyrazol-4-yl)-2-methylimidazo[1,2-a]pyridine-3-carboxamide]
0.1 | Cc1nn(CCO)c(C)c1NC(=O)c1c(C)nc2c(OCc3c(F)cccc3F)cc(Cl)cn12 [Example 42, 6-chloro-8-[(2,6-difluorobenzyl)oxy]-N-[1-(2-hydroxyethyl)-3,5-dimethyl-1H-pyrazol-4-yl]-2-methylimidazo[1,2-a]pyridine-3-carboxamide]
1.0 | Cc1nc2c(OCc3c(F)cccc3F)cc(Cl)cn2c1C(=O)Nc1cnn(CC(F)(F)F)c1 [Example 44, 6-chloro-8-[(2,6-difluorobenzyl)oxy]-2-methyl-N-[1-(2,2,2-trifluoroethyl)-1H-pyrazol-4-yl]imidazo[1,2-a]pyridine-3-carboxamide]
0.3 | Cc1nc2c(OCc3c(F)cccc3F)cc(Cl)cn2c1C(=O)Nc1cnn(C(C)C)c1 [Example 45, 6-chloro-8-[(2,6-difluorobenzyl)oxy]-N-(1-isopropyl-1H-pyrazol-4-yl)-2-methylimidazo[1,2-a]pyridine-3-carboxamide]
0.1 | Cc1nc2c(OCc3c(F)cccc3F)cc(Cl)cn2c1C(=O)Nc1cnn(CCO)c1 [Example 46, 6-chloro-8-[(2,6-difluorobenzyl)oxy]-N-[1-(2-hydroxyethyl)-1H-pyrazol-4-yl]-2-methylimidazo[1,2-a]pyridine-3-carboxamide]
0.3 | Cc1nc2c(OCc3c(F)cccc3F)cc(Cl)cn2c1C(=O)Nc1cn[nH]c1C [Example 47, 6-chloro-8-[(2,6-difluorobenzyl)oxy]-2-methyl-N-(5-methyl-1H-pyrazol-4-yl)imidazo[1,2-a]pyridine-3-carboxamide + 6-chloro-8-[(2,6-difluorobenzyl)oxy]-2-methyl-N-(3-methyl-1H-pyrazol-4-yl)imidazo[1,2-a]pyridine-3-carboxamide]
0.3 | Cc1n[nH]c(C)c1NC(=O)c1c(C)nc2c(OCc3c(F)cccc3F)cc(F)cn12 [Example 48, 8-[(2,6-Difluorobenzyl)oxy]-N-(3,5-dimethyl-1H-pyrazol-4-yl)-6-fluoro-2-methylimidazo[1,2-a]pyridine-3-carboxamide]
0.65 | Cc1cc(OCc2c(F)cccc2F)c2nc(C)c(C(=O)Nc3c(C)n[nH]c3C)n2c1 [Example 52, 8-[(2,6-difluorobenzyl)oxy]-N-(3,5-dimethyl-1H-pyrazol-4-yl)-2,6-dimethylimidazo[1,2-a]pyridine-3-carboxamide]
1.0 | Cc1n[nH]c(C)c1NC(=O)c1c(C)nc2c(OCc3cccc(F)c3F)cc(Cl)cn12 [Example 53, 6-chloro-8-[(2,3-difluorobenzyl)oxy]-N-(3,5-dimethyl-1H-pyrazol-4-yl)-2-methylimidazo[1,2-a]pyridine-3-carboxamide]

The next lines start with the molecule.

Compound | MEC [µM]
Cc1nn(CC(F)(F)F)c(C)c1NC(=O)c1c(C)nc2c(OCc3c(F)cccc3F)cc(Cl)cn12 [Example 43, 6-chloro-8-[(2,6-difluorobenzyl)oxy]-N-[3,5-dimethyl-1-(2,2,2-trifluoroethyl)-1H-pyrazol-4-yl]-2-methylimidazo[1,2-a]pyridine-3-carboxamide] | 0.03
Cc1n[nH]c(C)c1NC(=O)c1c(C)nc2c(OCC3CCCCC3)cccn12 [Example 49, 8-(cyclohexylmethoxy)-N-(3,5-dimethyl-1H-pyrazol-4-yl)-2-methylimidazo[1,2-a]pyridine-3-carboxamide] | 0.1
Cc1n[nH]c(C)c1NC(=O)c1c(C)nc2c(OCc3c(F)cccc3F)cc(N3CCCC3)cn12 [Example 50, 8-[(2,6-difluorobenzyl)oxy]-N-(3,5-dimethyl-1H-pyrazol-4-yl)-2-methyl-6-(pyrrolidin-1-yl)imidazo[1,2-a]pyridine-3-carboxamide] | 1.0
Cc1n[nH]c(C)c1NC(=O)c1c(C)nc2c(OCc3c(F)cccc3F)cc(N3CCOCC3)cn12 [Example 51, 8-[(2,6-difluorobenzyl)oxy]-N-(3,5-dimethyl-1H-pyrazol-4-yl)-2-methyl-6-(morpholin-4-yl)imidazo[1,2-a]pyridine-3-carboxamide] | 1.0
Cc1nc2c(OCc3c(F)cccc3F)cccn2c1C(=O)Nc1ccnc2ccc(F)cc12 [Example 54, 8-[(2,6-Difluorobenzyl)oxy]-N-(6-fluoroquinolin-4-yl)-2-methylimidazo[1,2-a]pyridine-3-carboxamide] | 0.03
Cc1nc2c(OCc3c(F)cccc3F)cccn2c1C(=O)Nc1c(-c2ccccc2)noc1C [Example 55, 8-[(2,6-Difluorobenzyl)oxy]-2-methyl-N-(5-methyl-3-phenyl-1,2-oxazol-4-yl)imidazo[1,2-a]pyridine-3-carboxamide] | 1.0
Cc1nc2c(OCc3c(F)cccc3F)cccn2c1C(=O)Nc1cccc2ccccc12 [Example 56, 8-[(2,6-difluorobenzyl)oxy]-2-methyl-N-(naphthalen-1-yl)imidazo[1,2-a]pyridine-3-carboxamide] | 0.1
Cc1nn(C)c(C)c1NC(=O)c1c(C)nc2c(OCc3c(F)cccc3F)cccn12 [Example 57, 8-[(2,6-Difluorobenzyl)oxy]-2-methyl-N-(1,3,5-trimethyl-1H-pyrazol-4-yl)imidazo[1,2-a]pyridine-3-carboxamide] | 3.0
Cc1cccc(C)c1NC(=O)c1c(C)nc2c(OCc3c(F)cccc3F)cccn12 [Example 58, 8-[(2,6-difluorobenzyl)oxy]-N-(2,6-dimethylphenyl)-2-methylimidazo[1,2-a]pyridine-3-carboxamide] | 0.3
Cc1nc2c(OCc3c(F)cccc3F)cccn2c1C(=O)Nc1nccc2ccccc12 [Example 59, 8-[(2,6-difluorobenzyl)oxy]-N-(isoquinolin-1-yl)-2-methylimidazo[1,2-a]pyridin-3-carboxamide trifluoroacetate] | 1.0
Cc1nc2c(OCc3c(F)cccc3F)cccn2c1C(=O)Nc1cccc2cccc(Cl)c12 [Example 60, N-(8-Chloronaphthalen-1-yl)-8-[(2,6-difluorobenzyl)oxy]-2-methylimidazo[1,2-a]pyridine-3-carboxamide trifluoroacetate] | 0.3
Cc1nc2c(OCc3c(F)cccc3F)cccn2c1C(=O)Nc1cccc2cc(Cl)ccc12 [Example 61] | 0.3
Cc1nc2c(OCc3c(F)cccc3F)cccn2c1C(=O)Nc1ccc(Cl)c2ccccc12 [Example 62] | 1.0
Cc1ccc2c(NC(=O)c3c(C)nc4c(OCc5c(F)cccc5F)cccn34)c(C)ccc2n1 [Example 63] | 0.3
Cc1ccc2c(NC(=O)c3c(C)nc4c(OCc5c(F)cccc5F)cccn34)cccc2n1 [Example 64] | 0.2
